The text below walks through data of patent publication US6576620B2, “Method of identifying partial adenosine A1 receptor agonists” (CV Therapeutics, Inc., priority 1999, dated 2003).

One data set relates to Adenosine A1 receptor. Put plainly: A1-agonist stimulated [35S]GTPγS binding to G proteins. The format is biochemical. As to conditions: for GTPγS: normalized to the full agonist CPA. As for the experimental part: At the end of the incubation, each suspension was filtered and the retained radioactivity determined as described above.
The subject of data set [1] is guinea pig isolated heart. Put plainly: Spontaneous atrial rate, isolated heart. The settings on record: for atrial rate: maximal effect, controls 195±6 (Compound 6) and 198±15 (CPA). An excerpt: Guinea pigs (Hartley) of either sex weighing 300-350 g were anaesthetized with methoxyflurane and killed by decapitation. The chest was cut open and the heart was removed quickly and rinsed in ice-cold modified Krebs-Henseleit (K-H) solution. The contents of the modified K-H solution were (in mM): NaCl 117.9, KCl 4.8, CaCl2 2.5, MgSO2 1.18, KH2PO4 1.2, Na2 EDTA 0.5, ascorbic acid 0.14, dextrose 5.5, pyruvic acid (sodium salt) 2.0, and NaHCO3 25. The K-H solution was continuously gassed with 95% oxygen and 5% CO2, and the pH was adjusted to a value of 7.4. To perfuse the heart by the Langendorff method, the transected aorta was slid onto a glass cannula and secured by a ligature. Retrograde perfusion of the aorta was initiated immediately at a constant flow of 10 ml min-′ with modified K-H solution warmed to 36.0±0.5° C. A side port in the cannula was used to connect the perfusion line to a Gould pressure transducer for measurement of coronary perfusion pressure. Coronary perfusion pressure was continuously recorded on a strip chart (Gould RS3400, Cleveland, Ohio) throughout each experiment. Coronary conductance (in ml min^−1 mmHg^−1) was calculated as the ratio of coronary flow (10 ml min^−1) to perfusion pressure (mm Hg). To facilitate the exit of fluid from the left ventricle, the leaflets of the mitral valve were trimmed with fine spring-handled scissors. When appropriate, hearts were paced at a constant rate using external electrodes. After completion of dissection and instrumentation (see below) for measurement of either atrial rate, stimulus-to-His bundle (S-H) interval, monophasic action potentials, or coronary perfusion pressure, each heart was allowed to equilibrate for 20-40 min before the administration of drug. Experimental interventions were always preceded and followed by control measurements. Criteria for exclusion of hearts from study were (1) a coronary perfusion pressure of less than 50 mm Hg, (2) absence of a stable coronary perfusion pressure during the equilibration period, and (3) inability to pace a heart at a constant rate throughout an experiment.
To measure spontaneous atrial rate in hearts that were not paced, a unipolar electrode was placed on the right atrium. A total of 10 atrial beats before, during, and after each intervention was recorded on chart paper moving at a rate of 50 mm per sec, and the average atrial rate at each time was determined from these records.

Data set [2] concerns the target T1, A1-AdoR (Cavia porcellus, UniProt P47745).
T1 sequence (P47745 1-326): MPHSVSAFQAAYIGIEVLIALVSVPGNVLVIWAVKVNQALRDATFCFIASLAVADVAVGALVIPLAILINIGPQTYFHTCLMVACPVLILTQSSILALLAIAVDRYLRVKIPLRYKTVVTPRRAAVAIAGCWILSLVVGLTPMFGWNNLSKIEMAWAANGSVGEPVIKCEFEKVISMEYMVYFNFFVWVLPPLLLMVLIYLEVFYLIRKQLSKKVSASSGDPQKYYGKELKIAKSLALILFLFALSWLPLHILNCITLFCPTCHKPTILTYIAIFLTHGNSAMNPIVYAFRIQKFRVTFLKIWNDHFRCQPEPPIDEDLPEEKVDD
The data set is described as follows: 3H-CPX binding to guinea pig forebrain membranes. As to conditions: for IC50: IC50 to reduce the binding of 3H-CPX. The protocol: (§1) Membranes containing A1-AdoRs for use in radioligand binding assays were prepared from guinea pig cerebral cortex or from rat isolated epididymal adipocytes. Freshly-isolated guinea pig brain cortical tissue was homogenized in ice-cold 50 mM Tris-HCl buffer (pH 7.4) using six up and down strokes of an ice-chilled Potter-Elvejhem tissue grinder and a motor-driven teflon™ pestle. A crude membrane preparation was isolated by centrifugation of the homogenate at 15,000×g for 20 min at 4° C. The membrane pellet was resuspended in fresh Tris buffer and pelleted again by centrifugation. The final membrane pellet was suspended in Tris buffer to achieve a protein content of 1.1-1.4 mg/ml and divided into aliquots for storage at −80° C. until needed for assays. Adipocytes were isolated from 10 epididymal fat pads and suspended in a homogenization buffer (pH 7.3) containing 250 mM sucrose, 20 mM HEPES, 1 mM EDTA, 10 μg/ml leupeptin, and 5 μg/ml pepstatin. Cells were homogenized using an ice-chilled Potter-Elvehjem tissue grinder and a motor-driven teflon™ pestle. Cell membranes were separated from fat by centrifugation of the homogenate for 5 min at 1000×g at 4° C. The infranate below the fat cake was removed and placed in a centrifuge tube. Membranes were collected by centrifugation of the infranate for 30 min at 20,000×g at 4° C. Membranes were resuspended in buffer (pH 7.1 at room temperature) containing 154 mM NaCl, 10 mM MgCl2, 50 mM HEPES, 1 mM EDTA, 5 μg/ml leupeptin, 5 μg/ml pepstatin, and 5 U/ml adenosine deaminase, and stored as aliquots in liquid nitrogen until needed for assays.
(§2) The binding affinity of experimental agonists high and low affinity states of the A1-ADOR was determined. […] The presence of GTP reduces the availability of high affinity binding sites on the GPCR. Thus, the method allows for a discrimination between high and low binding affinities.
(§3) After a 3 hour incubation at room temperature. the reaction was terminated by diluting the samples with ice-cold Tris buffer and immediate collection of membranes onto glass-fiber filters (Schleicher and Schuell, Keene, N.H.) by vacuum filtration using a cell harvester (Brandel, Gaithersburg, Md.). Filters were washed quickly three times with ice-cold buffer to remove unbound radioligand. Filter discs containing trapped membranes and bound radioligand were placed in 4 ml of scintillation cocktail and radioactivity of samples was quantified using a liquid scintillation counter. […] Results of radioligand binding assays were analyzed using the Prism program from GraphPad (San Diego, Calif.).

The target in data set [3] is T2, A1-AdoR (Rattus norvegicus, UniProt P25099).
T2 sequence (P25099 1-326): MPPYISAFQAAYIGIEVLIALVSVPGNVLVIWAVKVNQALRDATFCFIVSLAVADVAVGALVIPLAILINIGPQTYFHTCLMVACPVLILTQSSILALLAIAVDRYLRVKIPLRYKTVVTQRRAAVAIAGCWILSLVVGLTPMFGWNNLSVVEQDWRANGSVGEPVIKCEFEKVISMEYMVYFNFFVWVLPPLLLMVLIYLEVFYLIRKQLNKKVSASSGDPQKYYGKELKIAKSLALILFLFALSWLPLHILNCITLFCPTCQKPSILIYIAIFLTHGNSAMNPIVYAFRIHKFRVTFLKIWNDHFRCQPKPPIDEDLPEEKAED
The data set is described as follows: 3H-CPX binding to rat adipocyte membranes. As to conditions: for IC50: IC50 to reduce the binding of 3H-CPX; for Ki: Ki for reduction of 3H-CPX binding. The protocol:
as §1, §2, §3

Setting [4] is: Ki for reduction of 3H-CPX binding, absence of GTP.

Structures are written as SMILES. Read-outs that look alike come from different tables or passages of the source.

For the molecule `OC[C@H]1O[C@@H](n2cnc3c(NC4CCCC4)ncnc32)[C@H](O)[C@@H]1O` [CPA, N^6-cyclopentyladenosine, reference compound], the GTPγS came to 100% in the data set with Adenosine A1 receptor (Table 1, compounds of Example 2); 100% with Adenosine A1 receptor (Table 2, compounds of Example 3); 100% in the data set on Adenosine A1 receptor (Table 3, compounds of Example 4). In addition, in the data set with Adenosine A1 receptor (Table 5), the “GTPγS (% of CPA)” value was 100 % of CPA. The EC50 in data set [1] (Cavia porcellus, read-out: EC50 to decrease atrial rate) amounted to 68 nM. Moreover, the atrial rate in data set [1] is listed as 1±1 beats per minute. The IC50 on A1-AdoR [2] (absence of GTP) worked out at 2.5 nM; on A1-AdoR [2] (presence of 1 mM GTP), 28 nM. Besides, the Ki on A1-AdoR [2] (setting [4]) is 1.7 nM; on A1-AdoR [2] (Ki, high affinity sites, presence of 1 mM GTP, 2-site binding model), 10.4 nM; at A1-AdoR [2] (read-out: Ki, low affinity sites, presence of 1 mM GTP, 2-site binding model) it was 882 nM. Also, the Hill slope is recorded as 1.2 at A1-AdoR [2] (absence of GTP), 0.53 on A1-AdoR [2] (presence of 1 mM GTP), 0.88 at A1-AdoR [3] (absence of GTP) and 1.0 at A1-AdoR [3] (presence of 1 mM GTP). Besides, at A1-AdoR [2] (forebrain membranes), the “difference of IC50 in absence and presence of 1 mM GTP” value came to 11 fold. The “sites having a high affinity” value on A1-AdoR [2] (presence of 1 mM GTP, 2-site binding model) is given as 73%. In addition, the “difference of IC50 in absence and presence of GTP” value at A1-AdoR [3] (adipocyte membranes) came out at 10 fold.
In data set [1], `CNC(=O)OC[C@H]1OC(n2cnc3c(N[C@@H]4CCOC4)ncnc32)[C@H](O)[C@@H]1O` (stereo partly drawn) [Compound 6 of Example 2, [(5-{6-[((3R)oxolan-3-yl)amino]purin-9-yl}(3 S,2R,4R)-3,4-dihydroxyoxolan-2-yl)methoxy]-N-methylcarboxamide] returned an atrial rate of 169±7 beats per minute. Moreover, the “decrease of atrial rate” value in data set [1] (spontaneously-beating hearts) amounted to 13%. Further, the IC50 was 2900 nM at A1-AdoR [2] (presence of 1 mM GTP); 180 nM at A1-AdoR [3] (absence of GTP); 9500 nM on A1-AdoR [3] (presence of 1 mM GTP); 15000 nM on A1-AdoR [3] (presence of 1 mM GTP and 0.1 mM N-ethylmaleimide). In addition, the Ki at A1-AdoR [2] (setting [4]) amounted to 1800 nM; on A1-AdoR [2] (Ki for reduction of 3H-CPX binding, presence of 1 mM GTP), 2100 nM; at A1-AdoR [3] (absence of GTP), 62 nM; at A1-AdoR [3] (presence of 1 mM GTP), 3300 nM. Also, the Hill slope is 0.79 at A1-AdoR [2] (absence of GTP), 0.99 at A1-AdoR [2] (presence of 1 mM GTP), 0.87 at A1-AdoR [3] (absence of GTP) and 1.0 on A1-AdoR [3] (presence of 1 mM GTP). Also, on A1-AdoR [3] (adipocyte membranes), the “IC50 with GTP and N-ethylmaleimide relative to GTP alone” value stood at 1.6 fold. The “difference of IC50 in absence and presence of GTP” value on A1-AdoR [3] (rat, adipocyte membranes) came to 53 fold.
